Experimental data published in patent US10828301B2, “2,4-pyrimidinediamine compounds and their uses” (Rigel Pharmaceuticals, Inc, priority 2002, dated 2020).

Tests used:
[1] = test system: bone marrow derived mast cells (BMMC); assay: BMMC high cell density IgE activation: degranulation (hexosiminidase, histamine), leukotriene (LTC4) and cytokine (TNFalpha, IL-6) assays; assay type: cell-based; settings: Mus musculus, anti-IgE activation, hexosaminidase release, read-out: BMMC anti-IgE hexos IC50
B-cell line BJAB = assay: BJAB (B-cell) toxicity, light scatter; assay type: cell-based; settings: Homo sapiens; BJAB B-cells, flow cytometric light scatter; read-out: Toxicity BJAB Light Scat.
Description: The B-cell line BJAB was cultured in log phase in RPMI1640+10% heat-inactivated fetal bovine serum, lx L-glutamine, lx penicillin, lx […] and 1× beta-mercaptoethanol at 37° C., 5% CO2. First, BJABs were harvested, spun and resuspended in culture medium to a concentration of 7.7×10^5 cells/mL. 65 uL cells were mixed with 65 uL compound, in duplicate and in the presence of 0.1% DMSO in a V-bottomed 96-well tissue culture plate. Cells were incubated with compound at various dilutions at 37° C., 5% CO2. Toxicity was assessed by flow cytometric analysis of cellular light scatter.

[2] = test system: IgE-induced degranulation of tissue mast cells; assay: Mouse model of passive cutaneous anaphylaxis (PCA); assay type: in vivo; settings: mouse, in vivo
In short: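 Mice were sensitized intradermally with anti-DNP IgE on Day −1 and dosed with test agent on Day 0. They were then challenged i.v. with HSA-DNP plus Evans blue. Mast cell degranulation was quantified as dye leakage into tissue, extracted with formamide and read at 620 nm.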

[3] = assay type: in vivo; settings: 14-day repeat-dose; intranasal in rabbits and primates, oral in mice and rats
CHMC cells = assay: ionomycin-induced calcium ion flux in CHMC cells; assay type: cell-based, human; settings: 10 μM compound
[4] = molecular target: FcγRI receptor-mediated degranulation; assay: FcγRI-mediated degranulation (activation with anti-human IgG Fab fragment); settings: cells not primed with IgE, activated with rabbit anti-human IgG Fab fragment
[5] = Sheep model of allergic asthma (Ascaris suum challenge); assay type: in vivo; settings: administered in an aqueous suspension
Description: Sheep develop bronchoconstriction within minutes of exposure to inhaled antigen (Ascaris suum), with maximal airflow obstruction during the early allergic response (EAR). Release of preformed mast cell mediators is likely responsible for this early phase of airflow obstruction. […] In the sheep, AHR develops a few hours following antigen challenge, and can persist for up to 2 weeks.
In the sheep model of allergic asthma, sheep are administered aerosols of test article via an endotracheal tube, followed by an aerosol challenge with antigen extracted from the roundworm, Ascaris suum, to which the sheep are naturally allergic. Allergen challenge leads to direct bronchoconstriction (both EAR and LAR) and a persistent non-specific AHR. These three characteristics are similar to those seen in human allergic asthmatics. The activity of the test agent is determined by changes in the lung resistance (RL), which is calculated from measurements of transpulmonary pressure, flow, and respiratory volume. […] The LAR is a less pronounced increase in RL, which starts approximately 5-6 hours following allergen challenge and is resolved by 8 hours post-challenge. Twenty-four hours after the challenge, a dose response to carbachol is measured to determine the AHR, which is expressed as the dose of carbachol required to increase RL by 400% over baseline. […]

[6] = test system: basophils in whole human peripheral blood; assay: Basophil dustmite activation: histamine release assay; assay type: cell-based; settings: read-out: Basophils Dust mite Histmine IC50
Description: The basophil activation assay was carried out using whole human peripheral blood from donors allergic to dust mites with the majority of the red blood cells removed by dextran sedimentation. Human peripheral blood was mixed 1:1 with 3% dextran T500 and RBCs were allowed to settle for 20-25 min. The upper fraction was diluted with 3 volumes of D-PBS and cells were spun down for 10 min at 1500 rpm, RT. Supernatant was aspirated and cells were washed in an equal volume MT-buffer. Finally, cells were resuspended in MT-buffer containing 0.5% DMSO in the original blood volume. 80 uL cells were mixed with 20 uL compound in the presence of 0.5% DMSO, in triplicate, in a V-bottom 96-well tissue culture plate. A dose range of 8 compound concentrations was tested resulting in a 10-point dose response curve including maximum (stimulated) and minimum (unstimulated) response. […] The cells were stimulated for 30 minutes at 37° C., 5% CO2. […] The ELISA was performed according to supplier's instructions.

[7] = test system: FcεR1-mediated degranulation in mast cells; assay: FcεRI-mediated (anti-IgE induced) degranulation assay in mast cells; assay type: cell-based; settings: Mast cell; range stated for the whole listed group of compounds; read-out: inhibition of FcεR1-mediated degranulation in mast cells (IC50s)
[8] = test system: proteins downstream of Syk kinase in activated BMMC cells; assay: Phosphorylation of proteins in the IgE receptor signal transduction cascade in activated BMMC cells; assay type: cell-based, mouse; settings: varying concentrations, FIG. 7

SMILES | IC50 [1] | IC50 (B-cell line BJAB) | inhibition of the PCA response / FcεR-mediated vascular leakage (in words) [2] | dose limiting toxicity [3] | ionomycin-induced Ca2+ flux (CHMC cells) | inhibition of FcγRI-mediated degranulation [4] | effect on the EAR (in words) [5] | IC50 [6] | IC50 [7] | phosphorylation of various proteins downstream of Syk kinase in the IgE receptor signal transduction cascade [8]
Fc1cnc(Nc2ccc3c(c2)OCCO3)nc1Nc1ccc2c(c1)OCCO2 [Compound R926109, N2,N4-Bis(3,4-ethylenedioxyphenyl)-5-fluoro-2,4-pyrimidinediamine] | 0.6 µM | > 10 µM | dose-dependent inhibition | – | – | – | – | – | – | –
Oc1cccc(Nc2ncc(F)c(Nc3cccc(O)c3)n2)c1 [Compound R921218, N2,N4-Bis(3-hydroxyphenyl)-5-fluoro-2,4-pyrimidinediamine] | – | > 10 µM | dose-dependent inhibition | no dose limiting toxicity | no effect on ionomycin-induced Ca^2+ flux | inhibit FcγRI-mediated degranulation | failed to inhibit the EAR | 0.302 µM | 0.03 to 1.65 µM | inhibit phosphorylation
COc1ccc(Nc2ncc(F)c(Nc3cccc(O)c3)n2)cc1OC [Compound R926113, N2-(3,4-Dimethoxyphenyl)-5-fluoro-N4-(3-hydroxyphenyl)-2,4-pyrimidinediamine] | 0.65 µM | > 10 µM | – | – | – | – | – | – | – | –
